Reference: patent US11866450B2, “Modulators of Cystic Fibrosis Transmembrane Conductance regulator, pharmaceutical compositions, methods of treatment, and process for making the modulators” (priority 2018, dated 2024)

Biological target: CFTR-mediated chloride transport (Homo sapiens, UniProt P13569)
Assay type: cell-based
Conditions: enteroid cells incubated with test compound 18-24 hours, acute 10 μM forskolin and 300 nM Compound III; for Max. Activity: % of chloride transport with 3 μM Compound A, 3 μM Compound II and 300 nM acute Compound III triple combination control
Description: Base medium (ADF+++) consisted of Advanced DMEM/Ham's F12, 2 mM Glutamax, 10 mM HEPES, […] penicillin/streptomycin.
Intestinal enteroid maintenance medium (IEMM) consisted of ADF+++, 1× B27 supplement, 1× N2 supplement, 1.25 mM N-acetyl cysteine, 10 mM Nicotinamide, 50 ng/mL hEGF, 10 nM Gastrin, 1 μg/mL hR-spondin-1, 100 ng/mL hNoggin, TGF-b type 1 inhibitor A-83-01, 100 μg/mL Primocin, 10 μM P38 MAPK inhibitor SB202190.
Bath 1 Buffer consisted of 1 mM MgCl2, 160 mM NaCl, 4.5 mM KCl, 10 mM HEPES, 10 mM Glucose, 2 mM CaCl2).
Chloride Free Buffer consisted of 1 mM Magnesium Gluconate, 2 mM Calcium Gluconate, 4.5 mM Potassium Gluconate, 160 mM Sodium Gluconate, 10 mM HEPES, 10 mM Glucose.
Bath1 Dye Solution consisted of Bath 1 Buffer, 0.04% Pluronic F127, 20 μM Methyl Oxonol, 30 μM CaCCinh-A01, 30 μM Chicago Sky Blue.
Chloride Free Dye Solution consisted of Chloride Free Buffer, 0.04% Pluronic F127, 20 μM Methyl Oxonol, 30 μM CaCCinh-A01, 30 μM Chicago Sky Blue.
Chloride Free Dye Stimulation Solution consisted of Chloride Free Dye Solution, 10 μM forskolin, 100 μM IBMX, and 300 nM Compound III.
Human intestinal epithelial enteroid cells were obtained from the Hubrecht Institute for Developmental Biology and Stem Cell Research, Utrecht, The Netherlands and expanded in T-Flasks as previously described (Dekkers J F, Wiegerinck C L, de Jonge H R, Bronsveld I, Janssens H M, de Winter-de Groot K M, Brandsma A M, de Jong N W M, Bijvelds M J C, Scholte B J, Nieuwenhuis E E S, van den Brink S, Clevers H, van der Ent C K, Middendorp S and M Beekman J M. A functional CFTR assay using primary cystic fibrosis intestinal organoids. Nat Med. 2013 July; 19(7):939-45).
Cells were recovered in cell recovery solution, collected by centrifugation at 650 rpm for 5 min at 4° C., resuspended in TryPLE and incubated for 5 min at 37° C. Cells were then collected by centrifugation at 650 rpm for 5 min at 4° C. and resuspended in IEMM containing 10 μM ROCK inhibitor (RI) (trans-4-[(1R)-1-aminoethyl]-N-4-pyridinylcyclohexanecarboxamide). The cell suspension was passed through a 40 μm cell strainer and resuspended at 1×10^6 cells/mL in IEMM containing 10 μM RI. Cells were seeded at 5000 cells/well into multi-well plates and incubated for overnight at 37° C., 95% humidity and 5% CO2 prior to assay.
Enteroid cells were incubated with test compound in IEMM for 18-24 hours at 37° C., 95% humidity and 5% CO2. Following compound incubations, a membrane potential dye assay was employed using a FLIPR Tetra to directly measure the potency and efficacy of the test compound on CFTR-mediated chloride transport following acute addition of 10 μM forskolin and 300 nM Compound III. Briefly, cells were washed 5 times in Bath 1 Buffer. Bath 1 Dye Solution was added and the cells were incubated for 25 min at room temperature. Following dye incubation, cells were washed 3 times in Chloride Free Dye Solution. Chloride transport was initiated by addition of Chloride Free Dye Stimulation Solution and the fluorescence signal was read for 15 min. The CFTR-mediated chloride transport for each condition was determined from the AUC of the fluorescence response to acute forskolin and 300 nM Compound III stimulation. Chloride transport was then expressed as a percentage of the chloride transport following treatment with 3 μM Compound A, 3 μM Compound II and 300 nM acute Compound III triple combination control (% Activity).

Sequence of CFTR-mediated chloride transport (P13569 whole entry, looked up): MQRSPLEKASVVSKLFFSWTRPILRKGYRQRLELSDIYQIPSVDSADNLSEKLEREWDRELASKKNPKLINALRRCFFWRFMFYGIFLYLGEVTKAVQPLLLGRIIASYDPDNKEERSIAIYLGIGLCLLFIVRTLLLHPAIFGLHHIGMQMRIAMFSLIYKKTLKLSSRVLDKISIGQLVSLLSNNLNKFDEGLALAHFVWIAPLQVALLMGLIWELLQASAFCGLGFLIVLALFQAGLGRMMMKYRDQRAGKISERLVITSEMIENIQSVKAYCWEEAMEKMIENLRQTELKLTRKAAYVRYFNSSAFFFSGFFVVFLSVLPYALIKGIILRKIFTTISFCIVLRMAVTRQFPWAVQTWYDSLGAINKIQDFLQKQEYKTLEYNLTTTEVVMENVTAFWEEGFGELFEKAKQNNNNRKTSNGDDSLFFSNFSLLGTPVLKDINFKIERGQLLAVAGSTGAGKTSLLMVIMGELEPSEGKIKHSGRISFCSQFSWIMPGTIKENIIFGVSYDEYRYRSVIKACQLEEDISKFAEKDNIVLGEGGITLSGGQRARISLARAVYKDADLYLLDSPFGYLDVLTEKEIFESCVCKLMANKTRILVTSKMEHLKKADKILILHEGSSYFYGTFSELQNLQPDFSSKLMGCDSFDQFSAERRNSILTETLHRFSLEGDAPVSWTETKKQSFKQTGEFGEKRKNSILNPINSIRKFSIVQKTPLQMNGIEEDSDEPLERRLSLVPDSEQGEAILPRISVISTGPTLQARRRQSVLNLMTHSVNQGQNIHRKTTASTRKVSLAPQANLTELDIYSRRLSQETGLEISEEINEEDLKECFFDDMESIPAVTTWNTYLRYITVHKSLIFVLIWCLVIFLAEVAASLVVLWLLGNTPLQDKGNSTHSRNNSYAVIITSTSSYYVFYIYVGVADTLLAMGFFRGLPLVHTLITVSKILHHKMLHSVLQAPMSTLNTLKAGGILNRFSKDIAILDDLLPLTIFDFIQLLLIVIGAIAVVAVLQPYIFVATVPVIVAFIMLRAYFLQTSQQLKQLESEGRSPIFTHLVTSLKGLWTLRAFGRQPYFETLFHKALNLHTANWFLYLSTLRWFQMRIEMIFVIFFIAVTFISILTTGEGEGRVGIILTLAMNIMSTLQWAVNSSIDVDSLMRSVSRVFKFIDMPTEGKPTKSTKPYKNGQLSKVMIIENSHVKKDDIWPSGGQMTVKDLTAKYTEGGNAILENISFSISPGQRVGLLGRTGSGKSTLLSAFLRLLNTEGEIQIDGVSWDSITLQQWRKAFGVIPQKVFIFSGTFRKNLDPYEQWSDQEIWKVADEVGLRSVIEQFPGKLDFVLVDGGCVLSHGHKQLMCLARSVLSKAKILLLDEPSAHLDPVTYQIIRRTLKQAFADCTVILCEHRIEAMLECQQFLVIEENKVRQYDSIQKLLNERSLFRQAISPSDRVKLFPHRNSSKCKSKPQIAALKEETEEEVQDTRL

SMILES | EC50 [µM] | Max. Activity
CC1(C)C[C@H]2CCCOc3cccc(n3)S(=O)(=O)NC(=O)c3ccc(-n4ccc(OCCC5(C(F)(F)F)CC5)n4)nc3N1C2 (single isomer, unassigned) [Compound 49, 12,12-dimethyl-8-(3-{2-[1-(trifluoromethyl)cyclopropyl]ethoxy}-1H-pyrazol-1-yl)-18-oxa-2λ^6-thia-3,9,11,23-tetraazatetracyclo[17.3.1.111,14.05,10]tetracosa-1(22),5,7,9,19(23),20-hexaene-2,2,4-trione] | < 1 | +++ (+++ is >60%)
CC1(C)CC[C@H]2CNc3cccc(n3)S(=O)(=O)NC(=O)c3ccc(-n4ccc(OCCC5(C(F)(F)F)CC5)n4)nc3N21 (single isomer, unassigned) [Compound 50, 7,7-dimethyl-11-(3-{2-[1-(trifluoromethyl)cyclopropyl]ethoxy}-1H-pyrazol-1-yl)-17λ^6-thia-2,8,10,16,22-pentaazatetracyclo[16.3.1.04,8.09,14]docosa-1(22),9,11,13,18,20-hexaene-15,17,17-trione] | > 3 | + (+ is <30%)
CC1(C)CC[C@H]2CNc3cccc(n3)S(=O)(=O)NC(=O)c3ccc(-n4ccc(OCCC5(C(F)(F)F)CC5)n4)nc3N21 (single isomer, unassigned) [Compound 51, 7,7-dimethyl-11-(3-{2-[1-(trifluoromethyl)cyclopropyl]ethoxy}-1H-pyrazol-1-yl)-17λ^6-thia-2,8,10,16,22-pentaazatetracyclo[16.3.1.04,8.09,14]docosa-1(22),9,11,13,18,20-hexaene-15,17,17-trione] | > 3 | + (+ is <30%)
CC1(C)C[C@H]2CCCCc3ccc(cc3)S(=O)(=O)NC(=O)c3ccc(-n4ccc(OCCC5(C(F)(F)F)CC5)n4)nc3N1C2 (single isomer, unassigned) [Compound 54, 12,12-Dimethyl-8-(3-{2-[1-(trifluoromethyl)cyclopropyl]ethoxy}-1H-pyrazol-1-yl)-2λ^6-thia-3,9,11-triazatetracyclo[17.2.2.111,14.05,10]tetracosa-1(21),5,7,9,19,22-hexaene-2,2,4-trione] | 1 to 3 | ++ (++ is 30-60%)
CC1(C)C[C@H]2CCCCc3ccc(cc3)S(=O)(=O)NC(=O)c3ccc(-n4ccc(OCCC5(C(F)(F)F)CC5)n4)nc3N1C2 (single isomer, unassigned) [Compound 55, 12,12-Dimethyl-8-(3-{2-[1-(trifluoromethyl)cyclopropyl]ethoxy}-1H-pyrazol-1-yl)-2λ^6-thia-3,9,11-triazatetracyclo[17.2.2.111,14.05,10]tetracosa-1(21),5,7,9,19,22-hexaene-2,2,4-trione] | < 1 | +++ (+++ is >60%)
CC1(C)C[C@H]2CCCCc3cccc(c3)S(=O)(=O)NC(=O)c3ccc(-n4ccc(OCCC5(C(F)(F)F)CC5)n4)nc3N1C2 (single isomer, unassigned) [Compound 56, 12,12-dimethyl-8-(3-{2-[1-(trifluoromethyl)cyclopropyl]ethoxy}-1H-pyrazol-1-yl)-2λ^6-thia-3,9,11-triazatetracyclo[17.3.1.111,14.05,10]tetracosa-1(22),5,7,9,19(23),20-hexaene-2,2,4-trione] | < 1 | + (+ is <30%)
CC1(C)C[C@H]2CCCCc3cccc(c3)S(=O)(=O)NC(=O)c3ccc(-n4ccc(OCCC5(C(F)(F)F)CC5)n4)nc3N1C2 (single isomer, unassigned) [Compound 57, 12,12-dimethyl-8-(3-{2-[1-(trifluoromethyl)cyclopropyl]ethoxy}-1H-pyrazol-1-yl)-2λ^6-thia-3,9,11-triazatetracyclo[17.3.1.111,14.05,10]tetracosa-1(22),5,7,9,19(23),20-hexaene-2,2,4-trione] | < 1 | ++ (++ is 30-60%)
C[C@@H]1CC[C@H]2CN(c3nc(-n4ccc(OCCC5(C(F)(F)F)CC5)n4)ccc3C(=O)NS(=O)(=O)c3cccc(n3)N1)C(C)(C)C2 (single isomer, unassigned) [Compound 58, 12,12,17-trimethyl-8-(3-{2-[1-(trifluoromethyl)cyclopropyl]ethoxy}-1H-pyrazol-1-yl)-2λ^6-thia-3,9,11,18,23-pentaazatetracyclo[17.3.1.111,14.05,10]tetracosa-1(23),5(10),6,8,19,21-hexaene-2,2,4-trione] | < 1 | + (+ is <30%)
C[C@@H]1CC[C@H]2CN(c3nc(-n4ccc(OCCC5(C(F)(F)F)CC5)n4)ccc3C(=O)NS(=O)(=O)c3cccc(n3)N1)C(C)(C)C2 (single isomer, unassigned) [Compound 59, 12,12,17-trimethyl-8-(3-{2-[1-(trifluoromethyl)cyclopropyl]ethoxy}-1H-pyrazol-1-yl)-2λ^6-thia-3,9,11,18,23-pentaazatetracyclo[17.3.1.111,14.05,10]tetracosa-1(23),5(10),6,8,19,21-hexaene-2,2,4-trione] | < 1 | +++ (+++ is >60%)
C[C@@H]1CC[C@H]2CN(c3nc(-n4ccc(OCCC5(C(F)(F)F)CC5)n4)ccc3C(=O)NS(=O)(=O)c3cccc(n3)N1)C(C)(C)C2 (single isomer, unassigned) [Compound 60, 12,12,17-trimethyl-8-(3-{2-[1-(trifluoromethyl)cyclopropyl]ethoxy}-1H-pyrazol-1-yl)-2λ^6-thia-3,9,11,18,23-pentaazatetracyclo[17.3.1.111,14.05,10]tetracosa-1(23),5(10),6,8,19,21-hexaene-2,2,4-trione] | < 1 | +++ (+++ is >60%)
C[C@@H]1CC[C@H]2CN(c3nc(-n4ccc(OCCC5(C(F)(F)F)CC5)n4)ccc3C(=O)NS(=O)(=O)c3cccc(n3)N1)C(C)(C)C2 (single isomer, unassigned) [Compound 61, 12,12,17-trimethyl-8-(3-{2-[1-(trifluoromethyl)cyclopropyl]ethoxy}-1H-pyrazol-1-yl)-2λ^6-thia-3,9,11,18,23-pentaazatetracyclo[17.3.1.111,14.05,10]tetracosa-1(23),5(10),6,8,19,21-hexaene-2,2,4-trione] | < 1 | +++ (+++ is >60%)
CC1(C)C[C@H]2CCCCCNc3cccc(n3)S(=O)(=O)NC(=O)c3ccc(-n4ccc(OCCC5(C(F)(F)F)CC5)n4)nc3N1C2 (single isomer, unassigned) [Compound 63, 12,12-dimethyl-8-(3-{2-[1-(trifluoromethyl)cyclopropyl]ethoxy}-1H-pyrazol-1-yl)-2λ^6-thia-3,9,11,20,25-pentaazatetracyclo[19.3.1.111,14.05,10]hexacosa-1(24),5,7,9,21(25),22-hexaene-2,2,4-trione] | < 1 | +++ (+++ is >60%)
CC1(C)C[C@H]2CCCCCNc3cccc(n3)S(=O)(=O)NC(=O)c3ccc(-n4ccc(OCCC5(C(F)(F)F)CC5)n4)nc3N1C2 (single isomer, unassigned) [Compound 64, 12,12-dimethyl-8-(3-{2-[1-(trifluoromethyl)cyclopropyl]ethoxy}-1H-pyrazol-1-yl)-2λ^6-thia-3,9,11,20,25-pentaazatetracyclo[19.3.1.111,14.05,10]hexacosa-1(24),5,7,9,21(25),22-hexaene-2,2,4-trione] | < 1 | ++ (++ is 30-60%)
